{
  "source": "patent US20100143440A1",
  "about": "“UL97 INHIBITORS FOR TREATMENT OF PROLIFERATIVE DISORDERS” (The UAB Research Foundation, priority 2007, published 2010)",
  "key": {"GS strain of HHV-6A": {"system": "GS strain of HHV-6A", "assay": "Efficacy against HHV-6A in HSB-2 cells with reduced serum", "assay_type": "cell-based", "experimental": "The activity of MBV was evaluated against the GS strain of HHV-6A in HSB-2 cells with reduced serum to slow the growth of lymphocytes."}, "HCMV UL97 kinase": {"target": "T1, HCMV UL97 kinase (Human cytomegalovirus, UniProt P16788)", "T1 construct": "expressed in transfected cells; host or cells: COS7 cells (transient co-transfection)", "assay": "Surrogate assay: UL97 kinase dependent inhibition of pp65-GFP nuclear aggregation", "assay_type": "cell-based"}, "[1]": {"target": "T2, HHV-6B U69 protein kinase (Human herpesvirus 6B, UniProt P52446)", "T2 construct": "expressed in transfected cells", "assay": "Surrogate assay: U69 kinase dependent inhibition of pp65-GFP nuclear aggregation", "assay_type": "cell-based", "details": "15 μM MBV, FIG. 8; listed as MBV", "description": "This assay is similar to that reported previously for UL97 (Prichard, M. N., et al., 2005. Human cytomegalovirus UL97 Kinase is required for the normal intranuclear distribution of pp65 and virion morphogenesis. J Virol 79:15494-502). […] Inhibition of aggregation was kinase dependent since the U69B K219M mutation, which eliminates an essential lysine, is incapable of inhibiting aggregation."}, "UL97 kinase": {"target": "T3, UL97 kinase (Human cytomegalovirus, UniProt P16788)", "T3 construct": "expressed in transfected cells; host or cells: COS7 cells (transient co-transfection)", "assay": "UL97 kinase inhibition of pp71 aggregation in cotransfected COS7 cells", "assay_type": "cell-based, HCMV"}, "pUL97": {"target": "T4, pUL97 (Human cytomegalovirus, UniProt P16788)", "T4 construct": "expressed in transfected cells; host or cells: COS7 cells (transient co-transfection)", "assay": "Number of PML bodies in COS7 cells expressing pUL97", "assay_type": "cell-based, HCMV", "details": "FIG. 3F", "experimental": "Indirect immunofluorescence microscopy. Cells expressing proteins from transfected plasmids were visualized by methods published previously (Prichard et al., J. Virol. 79:15494-502 (2005)). Briefly, monolayers of HFF cells were grown on 12 mm diameter coverslips in 24-well plates. Transfected cells were fixed for 15 minutes with freshly prepared 2% formaldehyde in phosphate buffered saline (PBS), washed two times with PBS, and membranes were permeabilized with 0.2% Triton X-100 in PBS for 15 minutes. Monoclonal antibody to the V5 epitope tag was purchased from Invitrogen (Carlsbad, Calif.). Monoclonal antibodies to IE1 (63-27) and ppUL44 (28-21) were generously provided by Bill Britt and were used as culture supernatants with goat anti-mouse secondary antibodies conjugated to FITC or Texas Red (Southern Biotechnology, Birmingham, Ala.).\nPML bodies are affected by the kinase. Nuclear aggresomes form in a dynamic microtubule dependent process that initiates with fusion of small aggregations located at or near PML bodies. To determine the effect of pUL97 on these structures, this and other proteins were expressed in COST cells and visualized PML bodies with an antibody to SP100, which is a marker of these domains. […] Their number was also unaffected by the expression of pp71, however it colocalized with these structures and is consistent with previous reports. […]"}, "hyperphosphorylated Rb": {"system": "hyperphosphorylated Rb", "assay": "Western blot of Rb and p53 in HCMV infected HFF cells", "assay_type": "cell-based, human", "experimental": "Polyacrylamide gels and western blotting. HFF cells were infected at a multiplicity of infection of 2 PFU/cell and at 24 and 72 hours following infection they were disrupted in 2× Lamelli buffer (Sigma-Aldrich, St. Louis, Mo.) and separated on 10%, 7.5%, or 5% polyacrylamide gels depending on the size of the protein to be resolved (BioRad, Hercules, Calif.). Separated proteins were transferred to PVDF membranes (Roche Applied Science, Indianapolis, Ind.) in a buffer containing 28 mM Tris, 39 mM glycine, 0.0375% SDS and 20% methanol in a semi dry transfer cell (BioRad, Hercules, Calif.). Membranes were blocked in 1% blocking buffer (Roche Applied Science, Indianapolis, Ind.), incubated with primary antibodies overnight at 4° C. and washed extensively with PBS supplemented with 0.02% tween 20. A secondary antibody conjugated to alkaline phosphatase (Southern Biotechnology Associates, Birmingham, Ala.) and CDP* (Roche Applied Science, Indianapolis, Ind.) were used to detect the bound primary antibody. Monoclonal antibodies used in these studies were directed against PML (H-238) (Santa Cruz Biotechnology, Santa Cruz, Calif.), DAXX (Upstate Cell Signaling Solutions, Tamecula, Calif.), p53, retinoblastoma, β-tubulin, CREB binding protein (CBP) (Chemicon International, Tamecula, Calif.), and both V5 and Xpress (Invitrogen, Carlsbad, Calif.).\nUL97 kinase activity is required for the hyperphosphorylation of Rb. […] Proteins in this complex were examined by Western blots using samples derived from HFF cells that were uninfected, infected with AD169 a recombinant virus (RCΔA97) containing a large deletion in UL97 at a multiplicity of infection of 3 PFU/cell. Some of the infections were conducted in the presence of MBV to confirm that the observed changes were due to a deficiency of its kinase activity. […] In cells infected with the wt virus, increases in levels of p53 were observed (FIG. 4 lanes 9-12), but this increase was unaffected by the deletion of the UL97 open reading frame or treatment with maribavir. Also consistent with this previous report was an increase of hyperphosphorylated Rb at both 24 and 72 hours following infection (FIG. 4, lanes 3, 9). […] A previous report has shown that pp71 directs the proteasome dependent degradation of hypophosphorylated Rb, however observations presented here are distinct in that the hyperphosphorylation and stabilization of this form of Rb is inefficient in the absence UL97 kinase activity."}, "HHV-6": {"system": "HHV-6", "details": "Williams-Aziz et al. 2005; cited from earlier work"}},
  "note": "pEC50: −log10 of the molar value. Like-named read-outs stand apart in the source and are kept apart here.",
  "data": [
    {"smiles": "CC(C)Nc1nc2cc(Cl)c(Cl)cc2n1[C@H]1O[C@@H](CO)[C@H](O)[C@@H]1O", "note": "[maribavir]", "values": [
      {"measurement": "pEC50", "setting": "GS strain of HHV-6A; HSB2, GS strain of HHV-6A, HSB-2 cells, reduced serum, read-out: EC50 values under conditions of reduced serum", "result": "4.52 to 5.05"},
      {"measurement": "pEC50", "setting": "GS strain of HHV-6A; HSB2, HHV-6A in HSB-2 cells, 2% FBS, read-out: EC50", "result": 4.52},
      {"measurement": "pEC50", "setting": "GS strain of HHV-6A; HSB2, HHV-6A in HSB-2 cells, 5% FBS, read-out: EC50", "result": 5.05},
      {"measurement": "pEC50", "setting": "GS strain of HHV-6A; HSB2, HHV-6A in HSB-2 cells, 10% FBS, read-out: EC50", "result": "< 4.30"},
      {"measurement": "Effect on ability of UL97 to inhibit pp65-GFP aggregation", "setting": "HCMV UL97 kinase; 15 μM MBV, FIG. 8, listed as MBV", "result": "reduces the ability of UL97 and U69 to inhibit aggregation"},
      {"measurement": "Effect on inhibition of pp65 aggregate formation by the kinase", "setting": "HCMV UL97 kinase; COS7 cells co-expressing pp65-GFP and UL97", "result": "antagonized"},
      {"measurement": "Effect on ability of U69 to inhibit pp65-GFP aggregation", "setting": "[1]", "result": "reduces the ability of UL97 and U69 to inhibit aggregation"},
      {"measurement": "Effect on kinase inhibition of pp71 aggregation", "setting": "UL97 kinase", "result": "unable to inhibit the aggregation of pp71 in the presence of MBV"},
      {"measurement": "Effect on pUL97 reduction of the number of PML bodies", "setting": "pUL97", "result": "neither the K355M mutant, or pUL97 in the presence of maribavir could affect their numbers"},
      {"measurement": "Levels of hyperphosphorylated Rb", "setting": "hyperphosphorylated Rb; HFF cells infected with UL97 deletion virus RCΔ97", "result": "relatively unaffected"},
      {"measurement": "Increase in levels of p53", "setting": "hyperphosphorylated Rb; HFF cells infected with wt virus", "result": "unaffected"},
      {"measurement": "Increase of hyperphosphorylated Rb", "setting": "hyperphosphorylated Rb; HFF cells infected with wt virus AD169, 24 hours post infection", "result": "did not occur"},
      {"measurement": "Levels of hyperphosphorylated Rb", "setting": "hyperphosphorylated Rb; HFF cells infected with wt virus AD169, 72 hours after infection", "result": "significantly reduced"},
      {"measurement": "Hyperphosphorylated forms of Rb", "setting": "hyperphosphorylated Rb; infected cells, 24 and 72 hours, FIG. 4 legend", "result": "reduced"},
      {"measurement": "Inhibition of HHV-6 replication", "setting": "HHV-6", "result": "poor inhibitor"}
    ]}
  ]
}
